Measurements as given in patent publication US20080200441A1, “ESTROGEN RECEPTOR MODULATORS ASSOCIATED PHARMACEUTICAL COMPOSITIONS AND METHODS OF USE” (University of Southern California, priority 2007, published 2008).

Legend:
[1] = tested on: rat primary hippocampal neurons; assay: Neuroprotective efficacy (NE) against glutamate-induced neurotoxicity over time; format: cell-based; settings: for Neuroprotective efficacy 2 hours after glutamate exposure / Neuroprotective efficacy 7.5 hours after glutamate exposure / Neuroprotective efficacy 5 hours after glutamate exposure / Neuroprotective efficacy 10 minutes after glutamate exposure: glutamate 200 μM; for time course of neuroprotection: early vs later time points after glutamate
Method: FIGS. 13A-E are graphs showing the neuroprotective efficacy of NS2 (FIG. 13A); NS1-1 (FIG. 13B); NS1-2 (FIG. 13C); NS1-3 (FIG. 13D); and NS1-4 (FIG. 13E) against glutamate-induced neurotoxicity in rat primary hippocampal neurons as a function of time and concentration (nM).
The assay for evaluating neuroprotective efficacy after glutamate exposure is discussed above. The following compounds were evaluated: NS2; NS1-1; NS1-2; NS1-3; and NS1-4. The results are shown in the Tables 4-8 and are presented graphically in FIGS. 13A-E.
Results are presented as neuroprotective efficacy (NE), which is defined as the percentage of neurotoxin-induced toxicity prevented by the test compounds (or combinations) and quantified by the equation:
NE=(Vtreatment−Vneurotoxin)/(Vcontrol−Vneurotoxin)*100%
where Vtreatment is the individual value from the test compounds (or combinations)-treated cultures, Vneurotoxin is a mean value from glutamate treated cultures, and Vcontrol is a mean value from vehicle-treated control cultures.

ERK2 = assay: ERK phosphorylation, Western immunoblotting; settings: 10 nM, 30 min

| Compound | Neuroprotective efficacy 2 hours after glutamate exposure ([1]; 1 nM) | Neuroprotective efficacy 7.5 hours after glutamate exposure ([1]; 1 nM) | Neuroprotective efficacy 2 hours after glutamate exposure ([1]; 10 nM) | Neuroprotective efficacy 7.5 hours after glutamate exposure ([1]; 10 nM) | Neuroprotective efficacy 2 hours after glutamate exposure ([1]; 100 nM) | Neuroprotective efficacy 7.5 hours after glutamate exposure ([1]; 100 nM) | Neuroprotective efficacy 2 hours after glutamate exposure ([1]; 1000 nM) | Neuroprotective efficacy 7.5 hours after glutamate exposure ([1]; 1000 nM) | time course of neuroprotection [1] | Neuroprotective efficacy 5 hours after glutamate exposure ([1]; 1 nM) | Neuroprotective efficacy 5 hours after glutamate exposure ([1]; 10 nM) | Neuroprotective efficacy 5 hours after glutamate exposure ([1]; 100 nM) | Neuroprotective efficacy 5 hours after glutamate exposure ([1]; 1000 nM) | Neuroprotective efficacy 10 minutes after glutamate exposure ([1]; 1 nM) | Neuroprotective efficacy 10 minutes after glutamate exposure ([1]; 10 nM) | Neuroprotective efficacy 10 minutes after glutamate exposure ([1]; 100 nM) | Neuroprotective efficacy 10 minutes after glutamate exposure ([1]; 1000 nM) | increase in ERK2 phosphorylation compared to vehicle (ERK2) |
| --- | --- | --- | --- | --- | --- | --- | --- | --- | --- | --- | --- | --- | --- | --- | --- | --- | --- | --- |
| C[C@]12CCC3c4ccc(O)cc4C[C@@H](CCCCCCCCCCCCCCCCO)C3C1CC[C@@H]2O (some centres unmarked) [NS1-2] | 17.5192% | 26.5265% | 51.3940% | 76.6877% | 32.3028% | 93.0520% | 24.9982% | 47.1665% | neuroprotective at early time points and increases in magnitude at later time points | – | – | – | – | – | – | – | – | – |
| CCCCCCCCCCCCCCCC[C@@H]1Cc2cc(O)ccc2C2CC[C@@]3(C)C(CC[C@@H]3O)C21 (some centres unmarked) [NS1-1] | 12.7957% | – | 41.8183% | – | 77.2530% | – | 70.8102% | – | neuroprotective at early time points with diminished protection at later time points | 3.769% | 20.8614% | 23.8415% | 11.9900% | – | – | – | – | – |
| CC(C)=CCC/C(C)=C/CC/C(C)=C/CC1=C(c2ccc(O)cc2)C(=O)c2ccc(O)cc2C1=O [NS2] | 3.937% | – | 30.96% | – | 68.16% | – | 73.84% | – | neuroprotective at early time points and increases in magnitude at later time points | 24.94% | 44% | 71.35% | 76.45% | −10.3103% | −3.6302% | 33.68% | 40.51% | – |
| C[C@]12CCC3c4ccc(O)cc4C[C@@H](CCCCCCCCCCCCCCCCOCc4ccccc4)C3C1CC[C@@H]2O (some centres unmarked) [NS1-3] | 15.44% | 8.102% | 55.77% | 28.06% | 87.33% | 51.87% | 78.43% | 53.3893% | neuroprotective at early time points with diminished protection at later time points | – | – | – | – | – | – | – | – | – |
| CC(C)CCC[C@@H](C)CCC[C@@H](C)CCC[C@H](C)CC[C@@H]1Cc2cc(O)ccc2C2CC[C@@]3(C)C(CC[C@@H]3O)C21 (some centres unmarked) [NS1-4] | 51.86% | 8.415% | 86.27% | 28.8% | 110.3902% | 69.76% | 94.3991% | 38.0418% | neuroprotective at early time points with diminished protection at later time points | – | – | – | – | – | – | – | – | – |
| C[C@]12CC[C@@H]3c4ccc(O)cc4CC[C@H]3[C@@H]1CC[C@@H]2O [17β-estradiol] | – | – | – | – | – | – | – | – | – | – | – | – | – | – | – | – | – | 38.0±7.7% |
